# Measured values published in patent publication US7138361B2, “Herbicidal heterocycles” (E. I. du Pont de Nemours and Company, priority 2000, dated 2006).
# Experiments:
# Format in all cases: in vivo
# [1] = tested on: barnyardgrass (Echinochloa crus-galli); test: Test B preemergence
# In short: (§1)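 Seeds were planted and sprayed preemergence with test chemical in a non-phytotoxic solvent mixture containing surfactant; postemergence plants (2 to 18 cm, 1- to 4-leaf stage) received the same formulation. Greenhouse hold 13 to 15 days, then visual rating versus untreated controls on a 0–100 scale (0 no effect, 100 complete control).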
# [2] = tested on: pigweed (Amaranthus retroflexus); test: Test B preemergence
# In short: as §1
# [3] = tested on: cocklebur (Xanthium strumarium); test: Test B preemergence
# In short: as §1
# rice (Oryza saliva) = test: Test B preemergence
# In short: as §1
# [4] = tested on: giant foxtail (Setaria faberii); test: Test B preemergence
# In short: as §1
# [5] = tested on: morning glory (Ipomoea hederacea); test: Test B preemergence
# In short: as §1
# [6] = tested on: Surinam grass (Brachiaria decumbens); test: Test B preemergence
# In short: as §1
# [7] = tested on: lambsquarters (Chenopodium album); test: Test B preemergence
# In short: as §1
# [8] = tested on: velvetleaf (Abutilon theophrasti); test: Test B preemergence
# In short: as §1
# corn (Zea mays) = test: Test B preemergence
# In short: as §1
# [9] = tested on: crabgrass (Digitaria sanguinalis); test: Test B preemergence
# In short: as §1
# [10] = tested on: pigweed (Amaranthus retroflexus); test: Test C preemergence
# In short: (§2)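 Each compound was dissolved in a non-phytotoxic solvent system containing a surfactant and sprayed either on freshly planted seeds (preemergence) or on young plants, 2 to 18 cm high (postemergence). Ratings after 12 to 14 greenhouse days ran from 0, no effect, to 100, complete control.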
# [11] = tested on: cocklebur (Xanthium strumarium); test: Test C preemergence
# In short: as §2
# soybean (Glycine max) = test: Test C preemergence
# In short: as §2
# Nightshade = test: Test C preemergence
# [12] = tested on: woolly cupgrass (Eriochloa villosa); test: Test C preemergence
# In short: as §2
# [13] = tested on: Surinam grass (Brachiaria decumbens); test: Test C preemergence
# In short: as §2
# [14] = tested on: goosegrass (Eleusine indica); test: Test C preemergence
# In short: as §2
# [15] = tested on: lambsquarters (Chenopodium album); test: Test C preemergence
# In short: as §2
# [16] = tested on: common ragweed (Ambrosia elatior); test: Test C preemergence
# In short: as §2
# [17] = tested on: crabgrass (Digitaria sanguinalis); test: Test C preemergence
# In short: as §2
# [18] = Preemergence, Rate 500 g/ha, scale 0 to 100, 0 no effect, 100 complete control
# [19] = preemergence, Rate 125 g/ha, scale of 0 to 100 where 0 is no effect and 100 is complete control, 13 to 15 days
# [20] = Preemergence, Rate 500 g/ha, scale 0 to 100
# [21] = Rate 62 g/ha, scale 0 to 100, 0 no effect, 100 complete control
# [22] = preemergence, Rate 31 g/ha, scale 0 to 100
# [23] = preemergence, Rate 250 g/ha, visual evaluation after 12 to 14 days
# [24] = preemergence, Rate 125 g/ha, scale 0 to 100, 0 no effect, 100 complete control
# [25] = Rate 125 g/ha, scale 0 to 100, 0 no effect, 100 complete control
# [26] = preemergence, Rate 62 g/ha, scale 0 to 100
# [27] = preemergence, Rate 250 g/ha, scale 0 to 100, 0 no effect, 100 complete control
structure (smiles),measurement,setting,value
CC(C)(C)c1ccn(C2CCN(c3cccc(OC(F)(F)F)c3)C2=O)n1 (stereo not drawn) [Compound 49],"Plant response rating, Barnyardgrass",[1]; [18],100
same,"Plant response rating, Barnyardgrass",[1]; [19],100
same,"Plant response rating, Pigweed",[2]; [18],100
same,"Plant response rating, Pigweed",[2]; [19],100
same,"Plant response rating, Cocklebur",[3]; [18],0
same,"Plant response rating, Cocklebur",[3]; [19],0
same,"Plant response rating, Rice",rice (Oryza saliva); [18],20
same,"Plant response rating, Rice",rice (Oryza saliva); [19],0
same,"Plant response rating, Foxtail, Giant",[4]; [18],90
same,"Plant response rating, Foxtail, Giant",[4]; [19],0
same,"Plant response rating, Morningglory",[5]; [18],30
same,"Plant response rating, Morningglory",[5]; [19],0
same,"Plant response rating, Surinam grass",[6]; [18],0
same,"Plant response rating, Surinam grass",[6]; [19],0
same,"Plant response rating, Lambsquarters",[7]; [18],100
same,"Plant response rating, Lambsquarters",[7]; [19],100
same,"Plant response rating, Velvetleaf",[8]; [18],0
same,"Plant response rating, Velvetleaf",[8]; [19],0
same,"Plant response rating, Corn",corn (Zea mays); [18],0
same,"Plant response rating, Corn",corn (Zea mays); [19],0
same,"Plant response rating, Crabgrass",[9]; [18],0
same,"Plant response rating, Crabgrass",[9]; [19],0
same,"Plant response rating, Pigweed",[10]; [20],100
same,"Plant response rating, Pigweed",[10]; [21],100
same,"Plant response rating, Pigweed",[10]; [22],70
same,"Plant response rating (0 to 100), Pigweed",[10]; [23],100
same,"Plant response rating, Pigweed",[10]; [24],100
same,"Plant response rating, Cocklebur",[11]; [20],20
same,"Plant response rating, Cocklebur",[11]; [21],0
same,"Plant response rating, Cocklebur",[11]; [22],0
same,"Plant response rating (0 to 100), Cocklebur",[11]; [23],0
same,"Plant response rating, Cocklebur",[11]; [24],0
same,"Plant response rating, Soybean",soybean (Glycine max); [20],80
same,"Plant response rating, Soybean",soybean (Glycine max); [21],0
same,"Plant response rating, Soybean",soybean (Glycine max); [22],0
same,"Plant response rating (0 to 100), Soybean",soybean (Glycine max); [23],50
same,"Plant response rating, Soybean",soybean (Glycine max); [24],40
same,"Plant response rating, Nightshade","Nightshade; Rate 31 g/ha, scale 0 to 100",0
same,"Plant response rating, Nightshade","Nightshade; Rate 62 g/ha; scale 0 to 100, 0 no effect, 100 complete control",0
same,"Plant response rating, Nightshade",Nightshade; [25],30
same,"Plant response rating, Nightshade","Nightshade; Rate 500 g/ha, scale 0 to 100",90
same,"Plant response rating, Cupgrass, Woolly",[12]; [20],100
same,"Plant response rating, Cupgrass, Woolly",[12]; [21],30
same,"Plant response rating, Cupgrass, Woolly",[12]; [22],20
same,"Plant response rating (0 to 100), Cupgrass, Woolly",[12]; [23],70
same,"Plant response rating, Cupgrass, Woolly",[12]; [24],60
same,"Plant response rating, Surinam grass",[13]; [20],80
same,"Plant response rating, Surinam grass",[13]; [21],0
same,"Plant response rating, Surinam grass",[13]; [22],0
same,"Plant response rating (0 to 100), Surinam grass",[13]; [23],70
same,"Plant response rating, Surinam grass",[13]; [24],0
same,"Plant response rating, Goosegrass",[14]; [20],100
same,"Plant response rating, Goosegrass",[14]; [21],100
same,"Plant response rating, Goosegrass",[14]; [22],0
same,"Plant response rating (0 to 100), Goosegrass",[14]; [23],100
same,"Plant response rating, Goosegrass",[14]; [24],100
same,"Plant response rating, Lambsquarters",[15]; [20],100
same,"Plant response rating, Lambsquarters",[15]; [21],100
same,"Plant response rating, Lambsquarters",[15]; [22],100
same,"Plant response rating (0 to 100), Lambsquarters",[15]; [23],100
same,"Plant response rating, Lambsquarters",[15]; [24],100
same,"Plant response rating, Ragweed, Common",[16]; [20],90
same,"Plant response rating, Ragweed, Common",[16]; [21],0
same,"Plant response rating, Ragweed, Common",[16]; [22],0
same,"Plant response rating (0 to 100), Ragweed, Common",[16]; [23],30
same,"Plant response rating, Ragweed, Common",[16]; [24],30
same,"Plant response rating, Crabgrass",[17]; [20],100
same,"Plant response rating, Crabgrass",[17]; [21],100
same,"Plant response rating, Crabgrass",[17]; [22],0
same,"Plant response rating (0 to 100), Crabgrass",[17]; [23],100
same,"Plant response rating, Crabgrass",[17]; [24],100
CC(C)(C)c1ccn(C2CCN(c3cccc([S+]([O-])C(F)(F)F)c3)C2=O)n1 (stereo not drawn) [Compound 101],"Plant response rating, Barnyardgrass",[1]; [18],100
same,"Plant response rating, Barnyardgrass",[1]; [19],30
same,"Plant response rating, Pigweed",[2]; [18],100
same,"Plant response rating, Pigweed",[2]; [19],40
same,"Plant response rating, Cocklebur",[3]; [18],0
same,"Plant response rating, Cocklebur",[3]; [19],0
same,"Plant response rating, Rice",rice (Oryza saliva); [19],0
same,"Plant response rating, Foxtail, Giant",[4]; [18],100
same,"Plant response rating, Foxtail, Giant",[4]; [19],0
same,"Plant response rating, Morningglory",[5]; [18],0
same,"Plant response rating, Morningglory",[5]; [19],0
same,"Plant response rating, Surinam grass",[6]; [18],80
same,"Plant response rating, Surinam grass",[6]; [19],0
same,"Plant response rating, Lambsquarters",[7]; [18],100
same,"Plant response rating, Lambsquarters",[7]; [19],100
same,"Plant response rating, Velvetleaf",[8]; [18],0
same,"Plant response rating, Velvetleaf",[8]; [19],0
same,"Plant response rating, Corn",corn (Zea mays); [18],70
same,"Plant response rating, Corn",corn (Zea mays); [19],0
same,"Plant response rating, Crabgrass",[9]; [18],100
same,"Plant response rating, Crabgrass",[9]; [19],90
same,"Plant response rating, Pigweed",[10]; [25],0
same,"Plant response rating, Pigweed",[10]; [22],0
same,"Plant response rating, Pigweed",[10]; [26],0
same,"Plant response rating, Pigweed",[10]; [27],10
same,"Plant response rating, Cocklebur",[11]; [25],0
same,"Plant response rating, Cocklebur",[11]; [22],0
same,"Plant response rating, Cocklebur",[11]; [26],0
same,"Plant response rating, Cocklebur",[11]; [27],50
same,"Plant response rating, Soybean",soybean (Glycine max); [25],0
same,"Plant response rating, Soybean",soybean (Glycine max); [22],0
same,"Plant response rating, Soybean",soybean (Glycine max); [26],0
same,"Plant response rating, Soybean",soybean (Glycine max); [27],50
same,"Plant response rating, Nightshade","Nightshade; Rate 31 g/ha, scale 0 to 100",0
same,"Plant response rating, Nightshade","Nightshade; Rate 62 g/ha, scale 0 to 100",0
same,"Plant response rating, Nightshade","Nightshade; Rate 125 g/ha; scale 0 to 100, 0 no effect, 100 complete control",90
same,"Plant response rating, Nightshade","Nightshade; Rate 250 g/ha, scale 0 to 100, 0 no effect, 100 complete control",100
same,"Plant response rating, Cupgrass, Woolly",[12]; [25],20
same,"Plant response rating, Cupgrass, Woolly",[12]; [22],0
same,"Plant response rating, Cupgrass, Woolly",[12]; [26],0
same,"Plant response rating, Cupgrass, Woolly",[12]; [27],100
same,"Plant response rating, Surinam grass",[13]; [25],20
same,"Plant response rating, Surinam grass",[13]; [22],0
same,"Plant response rating, Surinam grass",[13]; [26],0
same,"Plant response rating, Surinam grass",[13]; [27],40
same,"Plant response rating, Goosegrass",[14]; [25],100
same,"Plant response rating, Goosegrass",[14]; [22],10
same,"Plant response rating, Goosegrass",[14]; [26],100
same,"Plant response rating, Goosegrass",[14]; [27],100
same,"Plant response rating, Lambsquarters",[15]; [25],100
same,"Plant response rating, Lambsquarters",[15]; [22],0
same,"Plant response rating, Lambsquarters",[15]; [26],0
same,"Plant response rating, Lambsquarters",[15]; [27],100
same,"Plant response rating, Ragweed, Common",[16]; [25],100
same,"Plant response rating, Ragweed, Common",[16]; [22],0
same,"Plant response rating, Ragweed, Common",[16]; [26],0
same,"Plant response rating, Ragweed, Common",[16]; [27],100
same,"Plant response rating, Crabgrass",[17]; [25],100
same,"Plant response rating, Crabgrass",[17]; [22],90
same,"Plant response rating, Crabgrass",[17]; [26],100
same,"Plant response rating, Crabgrass",[17]; [27],100
